Laboratory results published in patent publication US11666586B2, “Compositions and methods for treating acne vulgaris” (Dermala, Inc., priority 2016, dated 2023).
Values after ≈ are worked out from the molar mass of the structure shown. Where two headings read alike, the source gives them in different places.

Columns and labels:
[1] = tested on: P. acnes (ATCC 6919); assay: Minimum Inhibitory Concentration (MIC) determination, microbroth dilution; assay type: cell-based, Propionibacterium acnes; settings: API alone, 48 h anaerobic, ≥90% reduction in growth (OD600); for MIC: Cutibacterium acnes, ATCC6919, read-out: individual MIC
Protocol: P. acnes (ATCC 6919) was cultured on Brucella plates supplemented with 0.1 g/L hemin, 0.01 g/L vitamin K, and 5% (v/v) defibrinated sheep's blood at 37° C. under anaerobic conditions using a Gas-Pak (BD). For each assay, an inoculum of P. acnes was prepared by suspending a colony of P. acnes in 5 mL Reinforced Clostridium medium (RCM) and growing at 37° C. and 250 RPM under anaerobic conditions for 30 hours. […] Individual MIC values were determined for each drug according to the microbroth dilution method. […] Media without P. acnes and medium with P. acnes only were used for negative and positive controls, respectively, and contained the highest concentration of solvent used in each drug analysis. Plates were incubated under anaerobic conditions using a Gas-Pak (BD) for 48 hours at 37° C. Following incubation, each well was resuspended by pipetting and the optical density at 600 nm (OD600) was determined on a plate reader.

[2] = tested on: S. epidermidis (ATCC 12228); assay: Fermentation of prebiotics by S. epidermidis; assay type: cell-based, Staphylococcus epidermidis; settings: 2% prebiotic, six days anaerobic, compared to PBS control
Protocol: Preparation of Prebiotics: Glycerol, sucrose, β-lactose, and D-(+)-maltose were purchased from Sigma-Aldrich. Stock solutions of each prebiotic (4% w/v) were prepared in water and filtered through a 0.22 μm filter for sterilization.
Preparation of S. epidermidis conditioned media: S. epidermidis (ATCC 12228) was cultured on trypic soy broth (TSB) agar plates at 37° C. For each assay, an inoculum of S. epidermidis was prepared by suspending one colony of S. epidermidis from a TSB agar plate into 7 ml of TSB broth and growing at 37° C., 215 RPM for 16 hours. The overnight culture was subcultured by adding 100 μl of overnight culture to 10 ml of fresh TSB. Once mid-log phase was reached, the cells were pelleted by centrifugation, washed with PBS and resuspended in fresh PBS. In 15 ml culture tubes, 4.9 ml of Rich Broth (20 g/L yeast extract, 6 g/L TSB) was combined with 40 μl 0.5% phenol red indicator, 5 ml of 4% prebiotic (glycerol, sucrose, β-lactose, or D-(+)-maltose) or PBS as a control, and S. epidermidis (10^5 CFU/ml) and placed in an anaerobic Gas-Pak (BD). The cultures were incubated at 37° C., 215 RPM for 6 days. Following fermentation, the cells were pelleted and the supernatants were filtered through a 0.22 μm filter for sterilization.
No change in color occurred in PBS control (a).

[3] = tested on: P. acnes 6919; assay: Time-kill assay; assay type: cell-based, Propionibacterium acnes; settings: DRM1 30 mM or salicylic acid […] mM alone (2× MIC); combination […] + […]; RCM broth with 12% propylene glycol
[4] = Testing of combination products in human subjects with acne; settings: spot treatment
Description: The Formulation 1 was applied using Acne Treatment Pads one or two times per day.

[5] = tested on: biofilm-forming strains
Description: Biofilm formation is an important factor in P. acnes pathogenicity and biofilm is detected in approximately half of hair follicles of acne patients.

[6] = tested on: P. acnes; settings: serial passage, 10 cycles of 72 hours, method written in future tense
Description: Resistance development may be measured by two methods: single step for the determination of spontaneous frequency of resistance development and serial passage for the determination of progressive resistance development.

[7] = tested on: P. acnes strains RMA#20660 and RMA#20661; assay: MIC against multi-resistant P. acnes strains; assay type: cell-based, Propionibacterium acnes
Protocol: Individual MIC values were determined for each drug according to the microbroth dilution method. Briefly, 2-fold serial dilutions of each drug (50 μl) were added to wells in a 96-well plate followed by 50 μl of the prepared P. acnes inoculum as described in Example 1. Media without P. acnes and medium with P. acnes only were used for negative and positive controls, respectively, and contained the highest concentration of solvent used in each drug analysis. Plates were incubated under anaerobic conditions using a Gas-Pak (BD) for 48 hours at 37° C. Following incubation, each well was resuspended by pipetting and the optical density at 600 nm (OD600) was determined on a plate reader.

Row | SMILES | MIC ([1]; P. acnes 6919) | acidification of media (phenol red colour) by S. epidermidis fermentation [2] | MIC ([1]; P. acnes ATCC 6919) | further results
1 | CCC[C@@H]1C[C@@H](C(=O)N[C@@H]([C@H]2O[C@H](SC)[C@H](O)[C@@H](O)[C@H]2O)[C@H](C)Cl)N(C)C1 [Clindamycin, clindamycin, reference compound] | 0.063 µg/mL |  |  | 
2 | OCC(O)CO [glycerol] |  | change of color from red to yellow |  | 
3 | OC[C@H]1O[C@@](CO)(O[C@H]2O[C@H](CO)[C@@H](O)[C@H](O)[C@H]2O)[C@@H](O)[C@@H]1O [sucrose] |  | change of color from red to yellow |  | 
4 | OC[C@H]1O[C@H](O[C@H]2[C@H](O)[C@@H](O)[C@H](O)O[C@@H]2CO)[C@H](O)[C@@H](O)[C@@H]1O [D-(+)-maltose] |  | change of color from red to yellow |  | 
5 | O=C(O)c1ccccn1 [Picolinic acid, picolinic acid] |  |  | 1.88 mM | 
6 | O=C(O)c1ccccc1O [Salicylic Acid, salicylic acid, reference compound] |  |  | 7.5 mM | growth on plate after 15 minutes [3]: growth was evident
7 | O=C(OOC(=O)c1ccccc1)c1ccccc1 [BPO, benzoyl peroxide, reference compound] | 125 µg/mL |  |  | hyperpigmentation (dark spot side effect) [4]: dark spot side effect observed; individual MIC ([1]; P. acnes 6919): 125 µg/mL
8 | OC[C@H]1O[C@@H](O[C@H]2[C@H](O)[C@@H](O)[C@H](O)O[C@@H]2CO)[C@H](O)[C@@H](O)[C@H]1O [β-lactose] |  | change of color from red to yellow |  | 
9 | O=C(O)CCC(=O)O [DRM1, succinic acid] | 1770 µg/mL |  | 15 mM | concentration preventing biofilm formation [5]: ≥ 7.5 mM; spontaneous or progressive resistance development [6]: did not develop spontaneous or progressive resistance; MIC ([7]; Cutibacterium acnes, each of RMA#20660 and RMA#20661 (resistant to erythromycin, clindamycin, minocycline, doxycycline), ≥90% decrease in growth, OD600): 15 mM (≈ 1770 µg/mL); bactericidal activity against antibiotic-resistant P. acnes strains ([7]; RMA#20660 and RMA#20661): bactericidal; growth on plate after 15 minutes [3]: growth was evident; individual MIC ([1]; P. acnes 6919): 1771 µg/mL; individual MIC ([1]; P. acnes ATCC 6919): 15 mM
10 | O=C(O)CCCCCCCC(=O)O [Azelaic acid, azelaic acid, reference compound] |  |  | 7.5 mM | 
